According to article PMC6222789, “CF3-Substituted Mollugin 2-(4-Morpholinyl)-ethyl ester as a Potential Anti-inflammatory Agent with Improved Aqueous Solubility and Metabolic Stability” (Molecules : A Journal of Synthetic Chemistry and Natural …, 2018):

Tests used:
[1] = Metabolic stability, mouse liver microsomes; format: in vitro ADME; conditions: 30 min, 1 μM
Protocol: (§1) Pooled human liver microsomes (150 donor) and dog, rat, mouse liver microsomes were obtained from BD Gentest Co. (Woburn, MA, USA). NADPH regeneration system was obtained from Promega. S-Mephenytoin, 4-hydroxymephenytoin, and 1’-hydroxymidazolam were purchased from Ultrafine Chemical Co. (Manchester, UK). All other chemicals and solvents were of the highest grade available. The metabolic stability assay was performed by incubation of human or selected animal liver microsomes (most often dog, rat and mouse), at 37 °C with a test compound at a final concentration of 1 μM, in the presence of 0.5 mg/mL microsomal protein and NADPH regeneration system, in a total volume of 100 μL of 100 mM phosphate buffer, pH 7.4. The incubation was started by the addition of NADPH regeneration system and terminated with 40 μL of ice-cold acetonitrile at 0 and 30 min. Precipitated proteins were removed by centrifugation at 10,000× g for 5 min at 4 °C. Aliquots of the supernatant were injected onto an LC-MS/MS system. Incubations terminated prior to the addition of NADPH regeneration system (time point 0 min) were used as standards, defined as 100%. Percent of the parent compound remaining was calculated by comparing peak area.

[2] = Metabolic stability, rat liver microsomes; format: in vitro ADME; conditions: 30 min, 1 μM
Protocol: as §1

[3] = system: TNF-α-induced adhesion of U937 monocytic cells to HT-29 cells; test: TNF-α-induced colonic epithelial cell adhesion assay; format: cell-based, human; conditions: for inhibition at 10 µM: Homo sapiens, Epithelial cell, U937 adhesion to HT-29 cells, TNF-α-induced; for inhibition of TNF-α-induced monocyte-epithelial adhesion: 10 μM
Protocol: (§2) Synthesized mollugin derivatives were subjected to the colonic epithelial cell adhesion assay, which mimics the initial stage of colon inflammation. The inhibition of TNF-α-induced or IL-6-induced adhesion of U937 monocytic cells to HT-29 cells in 10 μM solution of synthesized molecules was measured, and the results are summarized in Table 1 and Table 2. Mesalazine (2), a commercially available medication for the treatment of IBD, and mollugin were chosen as assay positive controls.
(§3) HT-29 human colonic epithelial cells and U937 human pre-monocytic cells were grown in RPMI 1640 medium supplemented with 10% FBS, 100 IU/mL penicillin, and 100 µg/mL streptomycin in a humidified incubator under 5% CO2/95% air.
(§4) U937 monocytic cell adhesion to colonic epithelial cells was evaluated using human U937 pre-monocytic cells, which were prelabeled with 2′,7′-bis(2-carboxyethyl)-5(6)-carboxyfluorescein acetoxymethyl ester (BCECF/AM, 10 μg/mL) for 1 h at 37 °C. HT-29 cells cultured in 24-well plates were pretreated with test compound, 5-ASA, or tofacitinib for 1 h prior to incubation with TNF-α (10 ng/mL) and IL-6 (5 ng/mL) for an additional 3 h. Cells were then co-incubated with BCECF/AM-prelabeled U937 cells (1 × 10^6 cells/well) for 30 min at 37 °C. Non-adhering U937 cells were removed, and the HT-29 cells and adherent U937 cells were washed twice with PBS. Images were captured and processed with a Nikon ECLIPSE TE2000-U microscope and NIS-Elements F software (Nikon, Tokyo, Japan). For quantitative analysis, other sets of cells were lysed in 0.1% Triton X-100 in Tris (0.1 M), and the fluorescence was measured using a fluorescence-detecting microplate reader (Promega , Madison, WI, USA) at […]. Experiments were performed in triplicate and repeated at least three times independently.

[4] = system: IL-6-induced adhesion of U937 monocytic cells to HT-29 cells; test: IL-6-induced colonic epithelial cell adhesion assay; format: cell-based, human; conditions: for inhibition at 10 µM: Homo sapiens, Epithelial cell, U937 adhesion to HT-29 cells, IL-6-induced; for inhibition of IL-6-induced monocyte-epithelial adhesion: 10 μM
Protocol: as §2, §3, §4

[5] = Metabolic stability, human liver microsomes; format: in vitro ADME; conditions: 1 μM
Protocol: as §1

[6] = Metabolic stability, dog liver microsomes; format: in vitro ADME; conditions: 30 min, 1 μM
Protocol: as §1

[7] = Plasma stability, rat plasma; format: in vitro ADME; conditions: 2 h, 37 °C, 1 μM
Protocol: (§5) The plasma stability assay was performed by incubation of human or rat plasma with a test compound in a final concentration of 1 μM for 120 min at 37 °C. The incubation was terminated by addition of 40 μL of ice-cold acetonitrile and vortexing for 5 min. The precipitated proteins were removed by centrifugation at 14,000× g for 5 min at 4 °C. Aliquots of the supernatant were injected onto a Shimadzu Nexera XR LC system. Percentages of the parent compound remaining were calculated by comparing peak areas using the Xcalibur software (version 1.6.1, Waltham, MA, USA).

[8] = Plasma stability, human plasma; format: in vitro ADME; conditions: 37 °C, 1 μM
Protocol: as §5

SMILES | Metabolic Stability (% Remain, 30 min) Mouse [1] | Metabolic Stability (% Remain, 30 min) Rat [2] | inhibition at 10 µM [3] | inhibition at 10 µM [4] | Metabolic Stability (% Remain, 30 min) Human [5] | Metabolic Stability (% Remain, 30 min) Dog [6] | inhibition of TNF-α-induced monocyte-epithelial adhesion [3] | inhibition of IL-6-induced monocyte-epithelial adhesion [4] | Plasma Stability (% Remain, 2 h) Rat [7] | Plasma Stability (% Remain, 2 h) Human [8]
CN(C)CCOC(=O)c1c2c(c3ccccc3c1O)OC(C)(C)C=C2 [6a, 2-(Dimethylamino)ethyl 6-hydroxy-2,2-dimethyl-2H-benzo[h]chromene-5-carboxylate] | 3 % Remain | 2 % Remain | 38 ± 4.9% | 35.5 ± 4.3% | 6 % Remain | 2 % Remain |  |  |  | 
CN(C)CCCOC(=O)c1c2c(c3ccccc3c1O)OC(C)(C)C=C2 [6b, 3-(Dimethylamino)propyl 6-hydroxy-2,2-dimethyl-2H-benzo[h]chromene-5-carboxylate] | 8 % Remain | 7 % Remain | 39.6 ± 2.9% | 34.8 ± 4.1% | 12 % Remain | 9 % Remain |  |  |  | 
CC1(C)C=Cc2c(C(=O)OCCN3CCCC3)c(O)c3ccccc3c2O1 [6c, 2-(Pyrrolidin-1-yl)ethyl 6-hydroxy-2,2-dimethyl-2H-benzo[h]chromene-5-carboxylate] |  |  | 39.7 ± 5.7% | 12.4 ± 2.1% |  |  | good % inhibition | reduced % inhibition |  | 
CC1(C)C=Cc2c(C(=O)OCCc3ccccn3)c(O)c3ccccc3c2O1 [6j, 2-(Pyridin-2-yl)ethyl 6-hydroxy-2,2-dimethyl-2H-benzo[h]chromene-5-carboxylate] |  |  | 43.1 ± 6.2% | 33.6 ± 5.9% |  |  |  |  |  | 
CC1(C)C=Cc2c(C(N)=O)c(O)c3ccccc3c2O1 [6k, 6-Hydroxy-2,2-dimethyl-2H-benzo[h]chromene-5-carboxamide] | 2 % Remain | 2 % Remain | 42.6 ± 4.2% | 39.1 ± 4.7% | 10 % Remain | 6 % Remain |  |  |  | 
CNC(=O)c1c2c(c3ccccc3c1O)OC(C)(C)C=C2 [6l, 6-Hydroxy-N,2,2-trimethyl-2H-benzo[h]chromene-5-carboxamide] | 2 % Remain | 1 % Remain | 45.4 ± 4.7% | 12.2 ± 4.4% | 13 % Remain | 1 % Remain |  |  |  | 
CCNC(=O)c1c2c(c3ccccc3c1O)OC(C)(C)C=C2 [6m, N-Ethyl-6-hydroxy-2,2-dimethyl-2H-benzo[h]chromene-5-carboxamide] |  |  | 38.4 ± 5.7% | 25.8 ± 3.4% |  |  |  |  |  | 
CN1CCN(C(=O)c2c3c(c4ccccc4c2O)OC(C)(C)C=C3)CC1 [6n, (6-Hydroxy-2,2-dimethyl-2H-benzo[h]chromen-5-yl)(4-methylpiperazin-1-yl)methanone] |  |  | 37.4 ± 3.3% | 34.2 ± 7.9% |  |  |  |  |  | 
CCN1CCN(C(=O)c2c3c(c4ccccc4c2O)OC(C)(C)C=C3)CC1 [6o] |  |  | 46.2 ± 5.4% | 9.4 ± 2.1% |  |  | good % inhibition | reduced % inhibition |  | 
COC(=O)c1c2c(c3ccc(F)cc3c1O)OC(C)(C)C=C2 [14a, Methyl 8-fluoro-6-hydroxy-2,2-dimethyl-2H-benzo[h]chromene-5-carboxylate] | 82 % Remain | 78 % Remain | 36.1 ± 7.6% | 59.4 ± 7.4% | 52 % Remain | 52 % Remain |  |  | 2 % Remain | 39.5 % Remain
COC(=O)c1c2c(c3ccc(C)cc3c1O)OC(C)(C)C=C2 [14b, Methyl 6-hydroxy-2,2,8-trimethyl-2H-benzo[h]chromene-5-carboxylate] | 19 % Remain | 51 % Remain | 29.8 ± 7.2% | 23.4 ± 2.5% | 88 % Remain | 4 % Remain |  |  | 1 % Remain | 100 % Remain
COC(=O)c1c2c(c3ccc(C(F)(F)F)cc3c1O)OC(C)(C)C=C2 [14c, Methyl 6-hydroxy-2,2-dimethyl-8-(trifluoromethyl)-2H-benzo[h]chromene-5-carboxylate] | 70 % Remain | 90 % Remain | 63.2 ± 10.8% | 39.3 ± 5.6% | 100 % Remain | 22 % Remain |  |  | 10 % Remain | 97 % Remain
COC(=O)c1c2c(c3cc(F)ccc3c1O)OC(C)(C)C=C2 [14d, Methyl 9-fluoro-6-hydroxy-2,2-dimethyl-2H-benzo[h]chromene-5-carboxylate] |  |  | 24.9 ± 8.1% | 28 ± 5.6% |  |  |  |  |  | 
CC1(C)C=Cc2c(C(=O)OCCN3CCOCC3)c(O)c3cc(F)ccc3c2O1 [15a, 2-Morpholinoethyl 8-fluoro-6-hydroxy-2,2-dimethyl-2H-benzo[h]chromene-5-carboxylate] | 10 % Remain | 9 % Remain | 36.6 ± 9.4% | 61.1 ± 10.9% | 78 % Remain | 10 % Remain |  |  | 91 % Remain | 100 % Remain
Cc1ccc2c3c(c(C(=O)OCCN4CCOCC4)c(O)c2c1)C=CC(C)(C)O3 [15b, 2-Morpholinoethyl 6-hydroxy-2,2,8-trimethyl-2H-benzo[h]chromene-5-carboxylate] | 18 % Remain | 9 % Remain | 24.9 ± 3.5% | 54.3 ± 6.5% | 41 % Remain | 57 % Remain |  |  | 55 % Remain | 100 % Remain
